For one series, the system named is RSV. As to the kind of experiment: Antiviral assay (PRA): inhibition of RSV syncytial plaque formation on Hep2 cell monolayers. The format is cell-based. As to conditions: human respiratory syncytial virus, read-out: PRA (IC50). How it is done:
The lower the observed level of fusion, the greater the antiviral activity of the compound was determined to be. Uninfected confluent monolayers (seeded at 2.2×10^4 cells/well) of Hep2 cells were grown in microtiter wells (96-well plates) in EMEM (Eagle Minimum Essential Medium w/o L-glutamine [Bio Whittaker Cat. […] Bio Whittaker Cat. No. 14-[…]), antibiotics (penicillin/streptomycin; Bio Whittaker Cat. […] The plates were incubated for 24 hours and used for antiviral assays and cytotoxicity assays. To prepare Hep2 cells for addition to uninfected cells, cultures of […] infected Hep2 cells were washed with DPBS (Dulbecco's Phosphate Buffered Saline w/o calcium or magnesium; Bio Whittaker Cat. […] Gibco Life Technologies Cat. No. 15040-017). The cells were spun for 10 minutes and resuspended in 3% FBS. Cell counts were performed using a hemacytometer. Persistent cells were added to the uninfected Hep2 cells. The antiviral assay was conducted by first removing all medium from the wells containing uninfected Hep2 cells, adding 100 μl complete EMEM, then adding hetero-substituted benzimidazole compounds (eight 3-fold dilutions with 20 μM concentration as the highest final concentration) in 50 μl complete EMEM. Approximately 50 […] plaque forming units (PFU) of RSV in 50 μl was added per well and the plates were incubated in a CO2 incubator at 37° C. for 48 hours. Each plate contained uninfected control wells and infected untreated control wells for calculation of % inhibition (EC50) for each concentration. After incubation, cells in control wells were checked for fusion centers, medium was removed from the wells followed by addition to each well of either Crystal Violet stain or XTT. With respect to Crystal Violet, approximately 50μl 0.25% Crystal Violet stain in methanol was added to each well. The wells were rinsed immediately, to remove excess stain, and were allowed to dry. The number of syncytia per well were then counted, using a dissecting microscope. For antiviral assays at 48 hours post infection, cells in control wells were checked for syncytial plaques. Medium was removed from the wells followed by addition of approximately 50 Al Crystal Violet stain (0.25% Crystal Violet, 0.25% Giemsa dissolved in 10% formaldehyde, 70% methanol, and 20% H2O). The wells were incubated at room temperature for 5 minutes, rinsed with H2O to remove excess stain, and allowed to dry. The number of syncytia per well were counted using a dissecting microscope. The 50% inhibitory concentration (EC50) for each compound was calculated from the dose response curve. The compounds listed in Tables 1-2 have been screened for inhibitory activity against RSV.

Series [1] is described as follows: XTT cytotoxicity assay on uninfected Hep2 cells. The format is cell-based. The conditions noted are these: human. Here is the method: Uninfected confluent monolayers (seeded at 2.2×10^4 cells/well) of Hep2 cells were grown in microtiter wells (96-well plates) in EMEM (Eagle Minimum Essential Medium w/o L-glutamine [Bio Whittaker Cat. No. 12-125F] with 3% fetal bovine serum (FBS; which had been heat inactivated for 30 minutes at 56° C.; Bio Whittaker Cat. No. 14-501F), antibiotics (penicillin/streptomycin; Bio Whittaker Cat. No. 17-602E) added at 1%, and glutamine added at 1% (complete EMEM). The plates were incubated for 24 hours and used for antiviral assays and cytotoxicity assays.
Cytotoxicity assays were conducted by first removing all medium from the well containing uninfected Hep2 cells, adding 100 μl complete EMEM, and then adding hetero-substituted benzimidazole compounds (eight 3-fold dilutions with 100 μM concentration as the highest final concentration). Complete EMEM (50 μl) was added to each well instead of virus and the plates were incubated in a CO2 incubator at 37° C. for 48 hours.
At 48 hours, the cytotoxicity assays were developed by adding to each well 50 μl of XTT (1 mg/ml in PBS) containing 0.01-0.02 mM of the electron coupling agent phenazine methosulfate (PMS). The plates were incubated for 2-4 hours at 37° C. and then read in a 96-well plate reader at 450 nm. Plotting the % average OD of treated wells compared to the cell control vs. compound concentration generated dose response curves. CC50 (50% inhibitory cytotoxic concentration) values for each compound were then calculated from these curves. […]
In general terms: Tetrazolium assays rely on reduction of a dye to a coloured formazan, in cell work by metabolically active cells.

The mark [2] stands for this setting: HEp-2, Table 1, RSV-infected Hep2 cells, 48 hours, syncytia counted.

The values that follow come from patent US20040166137A1, “Hetero-substituted benzimidazole compounds and antiviral uses thereof” (priority 2002, published 2004).

Read-outs that look alike come from different tables or passages of the source.

As a reminder, the IC50 is the concentration that gives 50% inhibition. As a reminder, the CC50 is the concentration giving 50% cytotoxicity. Turning to `OCCN(CCO)CCNCc1nc2cccnc2n1Cc1nc2ccccc2[nH]1` [compound 1, 2-[(2-{[3-(1H-Benzoimidazol-2-ylmethyl)-3H-imidazo[4,5-b]pyridin-2-ylmethyl]-amino}-ethyl)-(2-hydroxy-ethyl)-amino]-ethanol], in the series with RSV (HEp-2, 48 h), the IC50 stood at 160 nM. For the same compound, the CC50 at 48 h in series [1] (Table 1, uninfected Hep2 cells, 48 hours, read-out: XTT (CC50)) is ≥ 100000 nM.

As to `c1ccc2[nH]c(Cn3c(CNCCN4CCOCC4)nc4cccnc43)nc2c1` [compound 2, [3-(1H-Benzoimidazol-2-ylmethyl)-3H-imidazo[4,5-b]pyridin-2-ylmethyl]-(2-morpholin-4-yl-ethyl)-amine], the IC50 in the series on RSV (setting [2]) was found to be 240 nM. For the same compound, in series [1], the CC50 at 48 h was ≥ 100000 nM.

As to `COCCN(C)Cc1nc2cccnc2n1Cc1nc2ccccc2[nH]1` [compound 3, [3-(1H-Benzoimidazol-2-ylmethyl)-3H-imidazo[4,5-b]pyridin-2-ylmethyl]-(2-methoxy-ethyl)-methyl-amine], in the series on RSV (setting [2]), the IC50 was 150 nM. In addition, the CC50 at 48 h in series [1] is ≥ 100000 nM.

Regarding `c1ccc2[nH]c(Cn3c(CNCCCN4CCOCC4)nc4cccnc43)nc2c1` [compound 4, [3-(1H-Benzoimidazol-2-ylmethyl)-3H-imidazo[4,5-b]pyridin-2-ylmethyl]-(3-morpholin-4-yl-propyl)-amine], the IC50 with RSV (setting [2]) amounted to 190 nM. Moreover, the half-maximal cytotoxic concentration (CC50) at 48 h in series [1] is ≥ 100000 nM.

In the case of `CN1CCN(CCCNCc2nc3cccnc3n2Cc2nc3ccccc3[nH]2)CC1` [compound 5, [3-(1H-Benzoimidazol-2-ylmethyl)-3H-imidazo[4,5-b]pyridin-2-ylmethyl]-[3-(4-methyl-piperazin-1-yl)-propyl]-amine], the IC50 with RSV (setting [2]) was 9 nM. Besides, the 50% cytotoxic concentration (CC50) at 48 h in series [1] was ≥ 100000 nM.

In the case of `OCCN(CCO)CCCNCc1nc2cccnc2n1Cc1nc2ccccc2[nH]1` [compound 6, 2-[(3-{[3-(1H-Benzoimidazol-2-ylmethyl)-3H-imidazo[4,5-b]pyridin-2-ylmethyl]-amino}-propyl)-(2-hydroxy-ethyl)-amino]-ethanol], the IC50 in the series with RSV (setting [2]) was determined as 190 nM. For the same compound, the cytotoxic concentration (CC50) at 48 h in series [1] was ≥ 100000 nM.

With `c1ccc2[nH]c(Cn3c(CNC4CCCC4)nc4cccnc43)nc2c1` [compound 7, [3-(1H-Benzoimidazol-2-ylmethyl)-3H-imidazo[4,5-b]pyridin-2-ylmethyl]-cyclopentyl-amine], the IC50 with RSV (setting [2]) was 4 nM. Further, the CC50 at 48 h in series [1] was ≥ 100000 nM.

Regarding `CC(C)N(Cc1ccccc1)Cc1nc2cccnc2n1Cc1nc2ccccc2[nH]1` [compound 8, [3-(1H-Benzoimidazol-2-ylmethyl)-3H-imidazo[4,5-b]pyridin-2-ylmethyl]-benzyl-isopropyl-amine], the IC50 with RSV (setting [2]) was found to be 5 nM. Moreover, the CC50 at 48 h in series [1] is ≥ 100000 nM.

As to `CC(C)N(C)Cc1nc2cccnc2n1Cc1nc2ccccc2[nH]1` [compound 9, [3-(1H-Benzoimidazol-2-ylmethyl)-3H-imidazo[4,5-b]pyridin-2-ylmethyl]-isopropyl-methyl-amine], the IC50 with RSV (setting [2]) turned out to be 3 nM. In addition, in series [1], the 50% cytotoxic concentration (CC50) at 48 h was ≥ 100000 nM.

For `CC(C)N(Cc1nc2cccnc2n1Cc1nc2ccccc2[nH]1)C(C)C` [compound 12, [3-(1H-Benzoimidazol-2-ylmethyl)-3H-imidazo[4,5-b]pyridin-2-ylmethyl]-diisopropyl-amine], in the series on RSV (setting [2]), the IC50 was determined as 5 nM. In addition, the 50% cytotoxic concentration (CC50) at 48 h in series [1] is ≥ 100000 nM.

`c1ccc2[nH]c(Cn3c(CN4CCOCC4)nc4cccnc43)nc2c1` [compound 13, 3-(1H-Benzoimidazol-2-ylmethyl)-2-morpholin-4-ylmethyl-3H-imidazo[4,5-b]pyridine]: the IC50 in the series with RSV (HEp-2, Table 2, RSV-infected Hep2 cells, 48 hours, syncytia counted) was 1 nM. In addition, the CC50 at 48 h in series [1] was ≥ 100000 nM.

For `Cn1cnc(S(=O)(=O)N2CCN(Cc3nc4cccnc4n3Cc3nc4ccccc4[nH]3)CC2)c1` [compound 19, 3-(1H-Benzoimidazol-2-ylmethyl)-2-[4-(1-methyl-1H-imidazole-4-sulfonyl)-piperazin-1-ylmethyl]-3H-imidazo[4,5-b]pyridine], the cytotoxic concentration (CC50) at 48 h in series [1] was ≥ 100000 nM.
